In US8367723B2, “Selenoquinone-derived active organometallic complexes, methods for synthesizing same, and uses thereof” (Centre National de la Recherche Scientifique—CNRS, priority 2009, dated 2013):

Tests used:
[1] = tested on: A2780 ovarian cancer cells; experiment: MTT cytotoxicity test on A2780 ovarian cancer cells; type: cell-based; conditions: A2780 ovarian cancer cell line, 72 hours incubation
Description: (§1) The biological (cytotoxicity) properties of the complexes synthesized above were tested on A2780 and A2780cisR (cisplatin-resistant) ovarian cancer cells according to a conventional procedure described below, and the IC50 values obtained were compared with those obtained under the same conditions with the cisplatin complex Pt (NH3)2Cl2.
(§2) The A2780 and A2780cisR ovarian cancer cell lines were obtained from The European Collection of Cell Cultures (ECACC) (Salisbury, UK). The cells were cultured in RPMI medium comprising glucose, 5% of fetal calf serum (FCS) and antibiotics, at 37° C. and 5% CO2.
(§3) The cytotoxicity was determined using the MTT (3-(4,5-dimethyl-2-thiazolyl)-2,5-diphenyl-2H-tetrazolium bromide) test (MOSMANN, 1983).
(§4) The cells were distributed in 96-well plates, as monolayers, with 100 μl of solution (approximately 20 000 cells) per well, and were preincubated for 24 hours in a medium supplemented with 10% of FCS.
(§5) The compounds were prepared in DMSO solution, were then dissolved in the culture medium and were successively diluted to the appropriate concentration, in order to obtain a final DMSO concentration of 0.5%. 100 μl of solution of these compounds were added to each well and the plates were incubated for 72 hours. Subsequently, MTT (5 mg/ml) was added to the cells and the plates were incubated for 2 hours. The culture medium was removed by suction and the purple formazan crystals formed by the mitochondrial dehydrogenase activity of the living cells were dissolved in DMSO.
(§6) The optical density, which is directly proportional to the number of living cells, was quantified at 540 nm using a multiwell plate reader and the fraction of living cells was quantified from the absorbance of untreated control cells. Evaluation was carried out from two independent experiments, each comprising 3 microcultures per concentration level.

[2] = tested on: A2780cisR (cisplatin-resistant) ovarian cancer cells; experiment: MTT cytotoxicity test on A2780cisR (cisplatin-resistant) ovarian cancer cells; type: cell-based; conditions: A2780cisR (cisplatin-resistant) cell line, 72 hours incubation
Description: as §1, §2, §3, §4, §5, §6

Row | Compound | IC50 [1] [µM] | IC50 [2] [µM]
1 | N.N.[Cl][Pt][Cl] [cis-[Pt(NH3)2Cl2], cis-diamminedichloroplatinum(II)] | 3 | 25
2 | o-[(C5Me5)Ir(η^4-benzoquinone)] [compound 3] | > 400 | 
3 | o-[(C5Me5)Ir(η^4-dithiobenzoquinone)] [compound 5] | 49 | 
4 | o-[(C5Me5)Rh(η^4-benzoquinone)] [compound 1] | > 400 | 
5 | p-[(C5Me5)Ir(η^4-2,5-dimethyldiselenobenzoquinone)] [compound 10] | 6.2 | 7.3
6 | p-[(C5Me5)Ir(η^4-benzoquinone)] [compound 4] | 93 | 
7 | p-[(C5Me5)Ir(η^4-diselenobenzoquinone)] [compound 8] | 5 | 
8 | p-[(C5Me5)Ir(η^4-dithiobenzoquinone)] [compound 6] | 154 | 
9 | p-[(C5Me5)Ir(η^4-monoselenobenzoquinone)] [compound 9] | 12.3 | 8.4
10 | p-[(C5Me5)Rh(η^4-benzoquinone)] [compound 2] | > 400 | 
